Laboratory results taken from US9580432B2, “Fused pyrimidine compound or salt thereof” (TAIHO PHARMACEUTICAL CO., LTD., priority 2013, dated 2017).
pIC50: −log10 of the molar value.

Tests used:
[1] = tested on: A431 cells / TMD8 cells; assay: Proliferation inhibitory activity against cell lines expressing BTK and EGFR (in vitro), comparison of selectivity; assay type: cell-based, human; details: ratio from GI50 (nM), 3 days culture, CELLTITER GLO
Text: TMD8 cells, which are of a diffuse large B-cell lymphoma cell line expressing BTK, were suspended in RPMI1640 medium (manufactured by Life Technologies Corp.) containing 10% fetal bovine serum. A431 cells, which are of an EGFR-overexpressing, highly activated human epidermoid carcinoma cell line, were suspended in DMEM, high glucose medium (manufactured by Life Technologies Corp.) containing 10% fetal bovine serum. The cell suspensions were inoculated into each well of 384-well flat-bottomed microplates, and the cells were cultured for 1 day at 37° C. in an incubator containing 5% carbon dioxide gas. […] A DMSO solution of the test compounds was diluted with the medium used in the suspension of the each cells, and this was added to each of the wells of the cell culture plates such that the final concentration of DMSO would be 0.2%. The cells were further cultured for 3 days at 37° C. in an incubator containing 5% carbon dioxide gas. […] Proliferation inhibition ratio (%)=(C−T)/(C−C0)×100
T: Luminescence intensity of a well in which the test compound was added
C: Luminescence intensity of a well in which the test compound was not added
C0: Luminescence intensity of a well measured before the addition of the test compound
When a comparison is made between the cell proliferation inhibitory activity against A431 cells that depends on the EGFR proliferation signaling and the cell proliferation inhibitory activity against TMD8 cells that depends on the BTK proliferation signaling, the influence of the respective kinases at a cellular level is able to be evaluated. That is, when the “A431 cell proliferation inhibition ratio/TMD8 cell proliferation inhibition ratio” is calculated, it is contemplated that as the value of the ratio is larger, the selectivity to BTK over EGFR in the cells is higher.

[2] = target: purified recombinant human BTK protein (Homo sapiens (Human), UniProt Q06187); assay: Measurement of BTK inhibitory activity (in vitro); assay type: biochemical; details: FL-PEPTIDE 2 substrate 1 μM, ATP 45 μM, 40 minutes at 25° C.
Sequence of purified recombinant human BTK protein (Q06187 whole entry): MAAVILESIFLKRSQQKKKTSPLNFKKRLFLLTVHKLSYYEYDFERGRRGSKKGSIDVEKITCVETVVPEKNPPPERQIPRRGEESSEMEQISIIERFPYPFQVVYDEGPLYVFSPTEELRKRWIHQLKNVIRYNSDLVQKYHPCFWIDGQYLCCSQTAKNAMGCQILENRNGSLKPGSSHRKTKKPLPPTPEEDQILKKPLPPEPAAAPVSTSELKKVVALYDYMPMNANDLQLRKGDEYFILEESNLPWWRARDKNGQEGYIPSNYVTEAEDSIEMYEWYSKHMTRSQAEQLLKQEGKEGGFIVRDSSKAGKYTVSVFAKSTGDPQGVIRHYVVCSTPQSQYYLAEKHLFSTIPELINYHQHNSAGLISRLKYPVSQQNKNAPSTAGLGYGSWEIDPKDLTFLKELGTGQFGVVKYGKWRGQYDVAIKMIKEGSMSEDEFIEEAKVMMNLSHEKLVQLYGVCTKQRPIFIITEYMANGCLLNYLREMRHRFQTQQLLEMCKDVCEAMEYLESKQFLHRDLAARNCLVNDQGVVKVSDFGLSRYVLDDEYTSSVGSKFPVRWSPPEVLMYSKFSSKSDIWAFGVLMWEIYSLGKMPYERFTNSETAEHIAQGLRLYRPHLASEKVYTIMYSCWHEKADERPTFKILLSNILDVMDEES
Text: With regard to the setting of the conditions for a method for measuring the inhibitory activity of a compound against BTK kinase activity in vitro, it is described in the consumable reagent supplies price list for LabChip (registered trademark) series of PerkinElmer, Inc. that FL-PEPTIDE 2 corresponds to a substrate peptide for the measurement of BTK kinase activity. Therefore, FL-PEPTIDE 2 was used as a substrate. The purified recombinant human BTK protein used in the test was purchased from Carna Biosciences, Inc.
With regard to the measurement of the inhibitory activity of the compounds, firstly, the compounds of the present invention were diluted stepwise with dimethyl sulfoxide (DMSO). Subsequently, BTK protein, a substrate peptide (final concentration was 1 μM), magnesium chloride (final concentration was 10 mM), ATP (final concentration was 45 μM), and a DMSO solution of the compounds of the present invention (final concentration of DMSO was 5%) were added to a buffer solution for kinase reaction (20 mM HEPES (pH 7.5), 2 mM dithiotheitol, 0.01% Triton X-100), and after the solution was incubated for 40 minutes at 25° C., a kinase reaction was carried out. The reaction was terminated by adding EDTA thereto in order to obtain a final concentration of 30 mM. Finally, a substrate peptide that was not phosphorylated (S) and a phosphorylated peptide (P) were separated and detected by microchannel capillary electrophoresis using a LabChip EZ Reader II (PerkinElmer, Inc.).

[3] = tested on: purified recombinant human EGFR protein / BTK; assay: BTK inhibition selectivity compared with EGFR kinase inhibitory activity (in vitro); assay type: biochemical; details: EGFR assay ATP 1.5 μM
Procedure: 1) Measurement of BTK Inhibitory Activity
2) Measurement of EGFR Inhibitory Activity
Therefore, a biotinated peptide (biotin-[…]) was produced by referring to the amino acid sequence of the peptide. The purified recombinant human EGFR protein used in the test was purchased from Carna Biosciences, Inc.
With regard to the measurement of the inhibitory activity of the compounds, firstly, the compounds of the present invention were diluted stepwise with dimethyl sulfoxide (DMSO). […] The reaction was terminated by adding EDTA thereto in order to obtain a final concentration of 24 mM. Subsequently, a detection liquid containing Eu-labeled anti-phosphorylated tyrosine antibody PT66 (PerkinElmer, Inc.) and […] APC-SA (PerkinElmer, Inc.) was added thereto, and the system was left to stand for 2 hours or longer at room temperature.
3) BTK Inhibition Selectivity

C=CC(=O)N1CCC[C@@H](n2nc(C(=O)Nc3nc4cc(Br)ccc4o3)c3c(N)ncnc32)C1 [Example 2, (R)-1-(1-acryloylpiperidin-3-yl)-4-amino-N-(5-bromobenzo[d]oxazol-2-yl)-1H-pyrazolo[3,4-d]pyrimidine-3-carboxamide]
A431 cell proliferation inhibition ratio/TMD8 cell proliferation inhibitio ratio [1]: >1033.6 | pIC50 [2]: 9.33

C=C(C)C(=O)N1CCC[C@@H](n2nc(C(=O)Nc3nc4cc(Cl)ccc4o3)c3c(N)ncnc32)C1 [Example 4, (R)-4-amino-N-(5-chlorobenzo[d]oxazol-2-yl)-1-(1-methacryloylpiperidin-3-yl)-1H-pyrazolo[3,4-d]pyrimidine-3-carboxamide]
EGFR inhibitory activity IC50 value (nM)/BTK inhibitory activity IC50 value (nM) [3]: 929.2 | pIC50 [2]: 9.05

C/C=C/C(=O)N1CCC[C@@H](n2nc(C(=O)Nc3nc4cc(Cl)ccc4o3)c3c(N)ncnc32)C1 [Example 5, (R,E)-4-amino-N-(5-chlorobenzo[d]oxazol-2-yl)-1-(1-(but-2-enoyl)piperidin-3-yl)-1H-pyrazolo[3,4-d]pyrimidine-3-carboxamide]
EGFR inhibitory activity IC50 value (nM)/BTK inhibitory activity IC50 value (nM) [3]: 241.0 | pIC50 [2]: 8.90

C=CC(=O)N1CCC[C@@H](n2nc(C(=O)Nc3nc4c(C)cccc4o3)c3c(N)ncnc32)C1 [Example 10, (R)-1-(1-acryloylpiperidin-3-yl)-4-amino-N-(4-methylbenzo[d]oxazol-2-yl)-1H-pyrazolo[3,4-d]pyrimidine-3-carboxamide]
A431 cell proliferation inhibition ratio/TMD8 cell proliferation inhibitio ratio [1]: 5860.5 | pIC50 [2]: 8.62

C=CC(=O)N1CCC[C@@H](n2nc(C(=O)Nc3nc4cc(C)c(C)cc4o3)c3c(N)ncnc32)C1 [Example 23, (R)-1-(1-acryloylpiperidin-3-yl)-4-amino-N-(5,6-dimethylbenzo[d]oxazol-2-yl)-1H-pyrazolo[3,4-d]pyrimidine-3-carboxamide]
A431 cell proliferation inhibition ratio/TMD8 cell proliferation inhibitio ratio [1]: >10680 | pIC50 [2]: 8.80

C=CC(=O)N1CC[C@@H](n2nc(C(=O)Nc3nc4cc(Cl)ccc4o3)c3c(N)ncnc32)C1 [Example 24, (R)-1-(1-acryloylpyrrolidin-3-yl)-4-amino-N-(5-chlorobenzo[d]oxazol-2-yl)-1H-pyrazolo[3,4-d]pyrimidine-3-carboxamide]
A431 cell proliferation inhibition ratio/TMD8 cell proliferation inhibitio ratio [1]: 3266.5 | pIC50 [2]: 9.23

CC(C)=CC(=O)N1CC[C@@H](n2nc(C(=O)Nc3nc4cc(Cl)ccc4o3)c3c(N)ncnc32)C1 [Example 26, (R,E)-4-amino-N-(5-chlorobenzo[d]oxazol-2-yl)-1-(1-(3-methylbut-2-enoyl)pyrrolidin-3-yl)-1H-pyrazolo[3,4-d]pyrimidine-3-carboxamide]
EGFR inhibitory activity IC50 value (nM)/BTK inhibitory activity IC50 value (nM) [3]: 642.8 | pIC50 [2]: 8.55

C=CC(=O)N1CC[C@@H](n2nc(C(=O)Nc3nc4cc(-c5cccs5)ccc4o3)c3c(N)ncnc32)C1 [Example 28, (R)-1-(1-acryloylpyrrolidin-3-yl)-4-amino-N-(5-(thiophen-2-yl)benzo[d]oxazol-2-yl)-1H-pyrazolo[3,4-d]pyrimidine-3-carboxamide]
A431 cell proliferation inhibition ratio/TMD8 cell proliferation inhibitio ratio [1]: 2040.3 | pIC50 [2]: 9.25

C=CC(=O)N1CC[C@@H](n2nc(C(=O)Nc3nc4cc(C)ccc4o3)c3c(N)ncnc32)C1 [Example 29, (R)-1-(1-acryloylpyrrolidin-3-yl)-4-amino-N-(5-methylbenzo[d]oxazol-2-yl)-1H-pyrazolo[3,4-d]pyrimidine-3-carboxamide]
A431 cell proliferation inhibition ratio/TMD8 cell proliferation inhibitio ratio [1]: 1243.4 | pIC50 [2]: 9.31

Nc1ncnc2c1c(C(=O)Nc1nc3cc(Cl)ccc3o1)nn2[C@@H]1CCN(C(=O)/C=C/CN2CCCC2)C1 [Example 36, (R,E)-4-amino-N-(5-chlorobenzo[d]oxazol-2-yl)-1-(1-(4-(pyrrolidin-1-yl)but-2-enoyl)pyrrolidin-3-yl)-1H-pyrazolo[3,4-d]pyrimidine-3-carboxamide]
EGFR inhibitory activity IC50 value (nM)/BTK inhibitory activity IC50 value (nM) [3]: 59.8 | pIC50 [2]: 9.06

Nc1ncnc2c1c(C(=O)Nc1nc3cc(Cl)ccc3o1)nn2[C@@H]1CCN(C(=O)/C=C/CN2CCCCC2)C1 [Example 37, (R,E)-4-amino-N-(5-chlorobenzo[d]oxazol-2-yl)-1-(1-(4-(piperidin-1-yl)but-2-enoyl)pyrrolidin-3-yl)-1H-pyrazolo[3,4-d]pyrimidine-3-carboxamide]
EGFR inhibitory activity IC50 value (nM)/BTK inhibitory activity IC50 value (nM) [3]: 70.5 | pIC50 [2]: 9.10

C=CC(=O)N1CC(n2cc(C(=O)Nc3nc4cc(Cl)ccc4o3)c3c(N)ncnc32)C1 [Example 46, 7-(1-acryloylazetidin-3-yl)-4-amino-N-(5-chlorobenzo[d]oxazol-2-yl)-7H-pyrrolo[2,3-d]pyrimidine-5-carboxamide]
A431 cell proliferation inhibition ratio/TMD8 cell proliferation inhibitio ratio [1]: 7662.2 | pIC50 [2]: 8.49

C=CC(=O)N1CC[C@@H](n2cc(C(=O)Nc3nc4cc(Cl)ccc4o3)c3c(N)ncnc32)C1 [Example 48, (R)-7-(1-acryloylpyrrolidin-3-yl)-4-amino-N-(5-chlorobenzo[d]oxazol-2-yl)-7H-pyrrolo[2,3-d]pyrimidine-5-carboxamide]
A431 cell proliferation inhibition ratio/TMD8 cell proliferation inhibitio ratio [1]: 2496.4 | pIC50 [2]: 9.08

CN(C)C/C=C/C(=O)N1CC[C@@H](n2cc(C(=O)Nc3nc4cc(-c5ccccc5)ccc4o3)c3c(N)ncnc32)C1 [Example 56, (R,E)-4-amino-N-(5-phenylbenzo[d]oxazol-2-yl)-7-(1-(4-(dimethylamino)but-2-enoyl)pyrrolidin-3-yl) 7H-pyrrolo[2,3-d]pyrimidine-5-carboxamide]
EGFR inhibitory activity IC50 value (nM)/BTK inhibitory activity IC50 value (nM) [3]: 17.6 | pIC50 [2]: 8.87

CCN(C)C/C=C/C(=O)N1CC[C@@H](n2cc(C(=O)Nc3nc4cc(-c5ccccc5)ccc4o3)c3c(N)ncnc32)C1 [Example 57, (R,E)-4-amino-N-(5-phenylbenzo[d]oxazol-2-yl)-7-(1-(4-(ethyl(methyl)amino)but-2-enoyl)pyrrolidin-3-yl) 7H-pyrrolo[2,3-d]pyrimidine-5-carboxamide]
EGFR inhibitory activity IC50 value (nM)/BTK inhibitory activity IC50 value (nM) [3]: 19.3 | pIC50 [2]: 8.82

CC(C)N(C)C/C=C/C(=O)N1CC[C@@H](n2cc(C(=O)Nc3nc4cc(-c5ccccc5)ccc4o3)c3c(N)ncnc32)C1 [Example 59, (R,E)-4-amino-N-(5-phenylbenzo[d]oxazol-2-yl)-7-(1-(4-(isopropyl(methyl)amino)but-2-enoyl)pyrrolidin-3-yl) 7H-pyrrolo[2,3-d]pyrimidine-5-carboxamide]
EGFR inhibitory activity IC50 value (nM)/BTK inhibitory activity IC50 value (nM) [3]: 16.3 | pIC50 [2]: 8.82

C=CC(=O)N1CCC(Cn2nc(C(=O)Nc3nc4ccccc4o3)c3c(N)ncnc32)C1 (stereo not drawn) [Example 66, 1-((1-acryloylpyrrolidin-3-yl)methyl)-4-amino-N-(benzo[d]oxazol-2-yl)-1H-pyrazolo[3,4-d]pyrimidine-3-carboxamide]
A431 cell proliferation inhibition ratio/TMD8 cell proliferation inhibitio ratio [1]: >1205.7 | pIC50 [2]: 7.77

C=CC(=O)N1CC(n2nc(C(=O)Nc3nc4cc(F)ccc4o3)c3c(N)ncnc32)C1 [Example 79, 1-(1-acryloylazetidin-3-yl)-4-amino-N-(5-fluorobenzo[d]oxazol-2-yl)-1H-pyrazolo[3,4-d]pyrimidine-3-carboxamide]
EGFR inhibitory activity IC50 value (nM)/BTK inhibitory activity IC50 value (nM) [3]: 20.6

C=CC(=O)NCCCn1nc(C(=O)Nc2nc3ccccc3o2)c2c(N)ncnc21 [Example 85, 1-(3-acrylamidopropyl)-4-amino-N-(benzo[d]oxazol-2-yl)-1H-pyrazolo[3,4-d]pyrimidine-3-carboxamide]
EGFR inhibitory activity IC50 value (nM)/BTK inhibitory activity IC50 value (nM) [3]: 11.0
